Results as given in patent publication US12459899B2, “Isoquinolinone derivatives, method for preparing the same, and pharmaceutical composition for preventing or treating poly(ADP-ribose) polymerase-1-related diseases, comprising the same as active ingredient” (DIGMBIO. INC., priority 2019, dated 2025).
Structures can show the parent of a compound that is named as a salt.

molecular target: PARP-1 (poly[ADP-ribose] polymerase 1) enzyme (Homo sapiens (Human), UniProt P09874); experiment: PARP-1 (poly[ADP-ribose] polymerase 1) enzyme inhibitory ability, Trevigen assay kit; assay type: biochemical; details: 1 nM compound; read-out: PAR P-1 Inhibitory ability at 1 nM
How it was run: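 After the 1 hour PARP reaction, wells were washed with PBS containing 0.1% triton X-100 and then PBS. Strep-HRP (50 μL) was bound for 1 hour, wells washed again, and 50 μL of TACS-sapphire substrate developed 15 minutes in the dark. Reactions were stopped with 50 μL of 5% phosphoric acid and absorbance read at 450 nm on a Victor3 reader.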

Sequence of PARP-1 (poly[ADP-ribose] polymerase 1) enzyme (P09874 whole entry): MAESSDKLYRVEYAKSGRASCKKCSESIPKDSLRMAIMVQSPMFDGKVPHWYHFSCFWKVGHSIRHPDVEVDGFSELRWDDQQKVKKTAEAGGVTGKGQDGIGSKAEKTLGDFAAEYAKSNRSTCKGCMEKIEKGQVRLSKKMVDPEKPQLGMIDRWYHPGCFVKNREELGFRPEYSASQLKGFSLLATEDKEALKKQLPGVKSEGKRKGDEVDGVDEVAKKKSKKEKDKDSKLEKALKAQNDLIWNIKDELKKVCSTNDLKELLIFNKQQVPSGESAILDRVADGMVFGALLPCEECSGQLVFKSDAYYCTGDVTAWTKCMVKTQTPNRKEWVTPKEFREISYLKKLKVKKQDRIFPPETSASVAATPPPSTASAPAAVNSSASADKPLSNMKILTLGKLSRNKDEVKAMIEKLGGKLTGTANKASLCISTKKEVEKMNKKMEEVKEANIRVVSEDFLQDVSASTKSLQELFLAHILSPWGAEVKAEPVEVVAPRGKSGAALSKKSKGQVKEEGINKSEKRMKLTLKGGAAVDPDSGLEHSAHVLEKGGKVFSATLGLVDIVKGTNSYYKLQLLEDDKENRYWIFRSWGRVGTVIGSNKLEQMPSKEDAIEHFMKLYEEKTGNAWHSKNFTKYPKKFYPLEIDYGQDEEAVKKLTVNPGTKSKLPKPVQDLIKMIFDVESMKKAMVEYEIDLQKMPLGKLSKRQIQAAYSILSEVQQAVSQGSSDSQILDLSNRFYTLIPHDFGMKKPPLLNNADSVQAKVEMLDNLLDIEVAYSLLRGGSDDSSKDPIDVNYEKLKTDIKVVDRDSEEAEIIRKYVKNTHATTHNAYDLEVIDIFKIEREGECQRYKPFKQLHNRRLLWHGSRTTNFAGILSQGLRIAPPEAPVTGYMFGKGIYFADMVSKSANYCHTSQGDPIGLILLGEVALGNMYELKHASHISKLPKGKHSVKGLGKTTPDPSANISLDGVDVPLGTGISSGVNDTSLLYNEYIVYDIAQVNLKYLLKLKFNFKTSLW

O=C(CCc1cc2ccc(F)cc2c(=O)[nH]1)N1CCN(C(=O)C2CCC2)CC1 [Example 180, 3-(3-(4-(cyclobutanecarbonyl)piperazin-1-yl)-3-oxopropyl)-7-fluoroisoquinolin-1(2H)-one] and O=C(CCc1cc2ccc(F)cc2c(=O)[nH]1)N1CCN(C(=O)C2CCCO2)CC1 (centres unmarked) [Example 192, 7-fluoro-3-(3-oxo-3-(4-(tetrahydrofuran-2-carbonyl)piperazin-1-yl)propyl)isoquinolin-1(2H)-one] cannot be ordered by inhibition at 0.001 µM: less than 50% for the first, less than 50% for the second.

N#Cc1ccc(NC2CCN(C(=O)CCc3cc4cccc(F)c4c(=O)[nH]3)CC2)cc1 [Example 256, 4-((1-(3-(8-fluoro-1-oxo-1,2-dihydroisoquinolin-3-yl)propanoyl)piperidin-4-yl)amino)benzonitrile] and Cc1ccc(F)c2c(=O)[nH]c(CCC(=O)N3CCC(Nc4ccc(C#N)cc4)CC3)cc12 [Example 259, 4-((1-(3-(8-fluoro-5-methyl-1-oxo-1,2-dihydroisoquinolin-3-yl)propanoyl)piperidin-4-yl)amino)benzonitrile] cannot be ordered by inhibition at 0.001 µM: less than 50% for the first, less than 50% for the second.

COC(=O)c1ccc(NC2CCN(C(=O)CCc3cc4c(C)cc(F)cc4c(=O)[nH]3)CC2)cc1 [Example 267, methyl 4-((1-(3-(7-fluoro-5-methyl-1-oxo-1,2-dihydroisoquinolin-3-yl)propanoyl)piperidin-4-yl)amino)benzoate] and Cc1cc(F)cc2c(=O)[nH]c(CCC(=O)N3CC=C(c4ccc(F)cc4)CC3)cc12 [Example 150, 7-fluoro-3-(3-(4-(4-fluorophenyl)-3,6-dihydropyridin-1(2H)-yl)-3-oxopropyl)-5-methylisoquinolin-1(2H)-one] cannot be ordered by inhibition at 0.001 µM: less than 50% for the first, less than 50% for the second.

N#Cc1ccc(N2CC3CCC(C2)N3CCCc2cc3cccc(F)c3c(=O)[nH]2)nc1 [Example 203, 6-(8-(3-(8-fluoro-1-oxo-1,2-dihydroisoquinolin-3-yl)propyl)3,8-diazabicyclo[3.2.1]octan-3-yl)nicotinonitrile] and Cc1ccc(F)c2c(=O)[nH]c(CCC(=O)N3C4CCC3CN(c3ccc(C#N)cn3)C4)cc12 [Example 207, 6-(8-(3-(8-fluoro-5-methyl-1-oxo-1,2-dihydroisoquinolin-3-yl)propanoyl)-3,8-diazabicyclo[3.2.1]octan-3-yl)nicotinonitrile] cannot be ordered by inhibition at 0.001 µM: less than 50% for the first, less than 50% for the second.

Cc1ccc(F)c2c(=O)[nH]c(CCC(=O)N3CC(NC(=O)C4CC4)C3)cc12 [Example 275, N-(1-(3-(8-fluoro-5-methyl-1-oxo-1,2-dihydroisoquinolin-3-yl)propanoyl)azetidin-3-yl)cyclopropanecarboxamide] and Cc1ccc(F)c2c(=O)[nH]c(CCC(=O)N3CCN(C(=O)C(C)C)CC3)cc12 [Example 187, 8-fluoro-3-(3-(4-isobutyrylpiperazin-1-yl)-3-oxopropyl)-5-methylisoquinolin-1(2H)-one] cannot be ordered by inhibition at 0.001 µM: less than 50% for the first, less than 50% for the second.

Cc1ccc(F)c2c(=O)[nH]c(CCC(=O)N3CC=C(c4ccc(F)nc4)CC3)cc12 [Example 129] and Cc1ccc(F)c2c(=O)[nH]c(CCC(=O)N3CC=C(c4ccc(F)cc4)CC3)cc12 [Example 125, 8-fluoro-3-(3-(4-(4-fluorophenyl)-3,6-dihydropyridin-1(2H)-yl)-3-oxopropyl)-5-methylisoquinolin-1(2H)-one] cannot be ordered by inhibition at 0.001 µM: less than 50% for the first, less than 50% for the second.

O=C(CCc1cc2cccc(F)c2c(=O)[nH]1)N1CCN(C(=O)C2CCCCC2)CC1 [Example 170, 3-(3-(4-(cyclohexanecarbonyl)piperazin-1-yl)-3-oxopropyl)-8-fluoroisoquinolin-1(2H)-one] and N#Cc1ccc(N2CCN(C(=O)CCc3cc4cccc(F)c4c(=O)[nH]3)CC2)cn1 [Example 70, 5-(4-(3-(8-fluoro-1-oxo-1,2-dihydroisoquinolin-3-yl)propanoyl)piperazin-1-yl)picolinonitrile] cannot be ordered by inhibition at 0.001 µM: less than 50% for the first, less than 50% for the second.

O=c1[nH]c(CCCN2CCN(c3ccc(C(F)(F)F)cc3)CC2)cc2cccc(F)c12 [Example 4, 8-fluoro-3-(3-(4-(4-(trifluoromethyl)phenyl)piperazin-1-yl)propyl)isoquinolin-1(2H)-one] and O=c1[nH]c(CCCN2CCN(c3ccc(C(F)(F)F)cc3)CC2)cc2ccc(F)cc12 [Example 9, 7-fluoro-3-(3-(4-(4-(trifluoromethyl)phenyl)piperazin-1-yl)propyl)isoquinolin-1(2H)-one] cannot be ordered by inhibition at 0.001 µM: less than 50% for the first, less than 50% for the second.

First: Cc1cc(F)cc2c(=O)[nH]c(CCC(=O)N3C4CCC3CN(c3ccc(F)nc3)C4)cc12 [Example 217, 7-fluoro-3-(3-(3-(6-fluoropyridin-3-yl)-3,8-diazabicyclo[3.2.1]octan-8-yl)-3-oxopropyl)-5-methylisoquinolin-1(2H)-one]
Second: O=c1[nH]c(CCCN2C3CCC2CN(c2ccc(F)nc2)C3)cc2ncccc12 [Example 233, 7-(3-(3-(6-fluoropyridin-3-yl)-3,8-diazabicyclo[3.2.1]octan-8-yl)propyl)-1,6-naphthyridin-5(6H)-one]
The inhibition at 0.001 µM of the first is lower: less than 50% for the first, 50 to 80% for the second.

Compared with Cc1cnc(N2CCN(CCCc3cc4c(C)ccc(F)c4c(=O)[nH]3)CC2)s1 [Example 30, 8-fluoro-5-methyl-3-(3-(4-(5-methylthiazole-2-yl)piperazin-1-yl)propyl)isoquinolin-1(2H)-one], N#Cc1ccc(N2CCN(CCCc3cc4cccc(F)c4c(=O)[nH]3)CC2)cc1 [Example 6, 4-(4-(3-(8-fluoro-1-oxo-1,2-dihydroisoquinolin-3-yl)propyl)piperazin-1-yl)benzonitrile hydrochloride] is higher in inhibition at 0.001 µM: less than 50% for the first, 50 to 80% for the second.

O=c1[nH]c(CCCN2CCN(c3cccc(F)c3)CC2)cc2ncccc12 [Example 224, 7-(3-(4-(3-fluorophenyl)piperazin-1-yl)propyl)-1,6-naphthyridin-5(6H)-one] and O=C(O)c1cccc(N2CCN(CCCc3cc4ccc(F)cc4c(=O)[nH]3)CC2)c1 [Example 19, 3-(4-(3-(7-fluoro-1-oxo-1,2-dihydroisoquinolin-3-yl)propyl)piperazin-1-yl)benzoic acid] cannot be ordered by inhibition at 0.001 µM: less than 50% for the first, less than 50% for the second.

O=C(CCc1cc2cccc(F)c2c(=O)[nH]1)N1CC=C(c2ccccc2F)CC1 [Example 82, 8-fluoro-3-(3-(4-(2-fluorophenyl)-3,6-dihydropyridin-1(2H)-yl)-3-oxopropyl)isoquinolin-1(2H)-one] and N#Cc1cc(N2CCN(C(=O)CCc3cc4cccc(F)c4c(=O)[nH]3)CC2)ccc1F [Example 80, 2-fluoro-5-(4-(3-(8-fluoro-1-oxo-1,2-dihydroisoquinolin-3-yl)propanoyl)piperazin-1-yl)benzonitrile] cannot be ordered by inhibition at 0.001 µM: less than 50% for the first, less than 50% for the second.

N#Cc1cc(F)ccc1N1CCN(C(=O)CCc2cc3ccc(F)cc3c(=O)[nH]2)CC1 [Example 110, 5-fluoro-2-(4-(3-(7-fluoro-1-oxo-1,2-dihydroisoquinolin-3-yl)propanoyl)piperazin-1-yl)benzonitrile] and N#Cc1ccc(F)c(N2CCN(C(=O)CCc3cc4ccc(F)cc4c(=O)[nH]3)CC2)c1 [Example 107, 4-fluoro-3-(4-(3-(7-fluoro-1-oxo-1,2-dihydroisoquinolin-3-yl)propanoyl)piperazin-1-yl)benzonitrile] cannot be ordered by inhibition at 0.001 µM: less than 50% for the first, less than 50% for the second.

O=c1[nH]c(CCCN2CC=C(c3ccc(F)cc3)CC2)cc2ncccc12 [Example 236, 7-(3-(4-(4-fluorophenyl)-3,6-dihydropyridin-1(2H)-yl)propyl)-1,6-naphthyridin-5(6H)-one] and N#Cc1ccc(C2=CCN(CCCc3cc4ccc(F)cc4c(=O)[nH]3)CC2)cc1F [Example 52, 2-fluoro-4-(1-(3-(7-fluoro-1-oxo-1,2-dihydroisoquinolin-3-yl)propyl)-1,2,3,6-tetrahydropyridin-4-yl)benzonitrile] cannot be ordered by inhibition at 0.001 µM: less than 50% for the first, less than 50% for the second.

N#Cc1ccc(N2CCN(C(=O)CCc3cc4ccc(F)cc4c(=O)[nH]3)CC2)nc1 [Example 99, 6-(4-(3-(7-fluoro-1-oxo-1,2-dihydroisoquinolin-3-yl)propanoyl)piperazin-1-yl)nicotinonitrile] and N#Cc1ccc(N2CCN(C(=O)CCc3cc4ccc(F)cc4c(=O)[nH]3)CC2)cc1 [Example 94, 4-(4-(3-(7-fluoro-1-oxo-1,2-dihydroisoquinolin-3-yl)propanoyl)piperazin-1-yl)benzonitrile] cannot be ordered by inhibition at 0.001 µM: less than 50% for the first, less than 50% for the second.

Cc1cc(F)cc2c(=O)[nH]c(CCCN3CC=C(c4ccc(C(F)(F)F)cc4)CC3)cc12 [Example 64, 7-fluoro-5-methyl-3-(3-(4-(4-(trifluoromethyl)phenyl)-3,6-dihydropyridin-1(2H)-yl)propyl)isoquinolin-1(2H)-one] and N#Cc1ccc(C2=CCN(CCCc3cc4ccc(F)cc4c(=O)[nH]3)CC2)nc1 [Example 50, 1′-(3-(7-fluoro-1-oxo-1,2-dihydroisoquinolin-3-yl)propyl)-1′,2′,3′,6′-tetrahydro-[2,4′-bipyridine]-5-carbonitrile] cannot be ordered by inhibition at 0.001 µM: less than 50% for the first, less than 50% for the second.

Cc1ccc(F)c2c(=O)[nH]c(CCC(=O)N3CCN(c4ccc(C#N)c(F)c4)CC3)cc12 [Example 126, 2-fluoro-4-(4-(3-(8-fluoro-5-methyl-1-oxo-1,2-dihydroisoquinolin-3-yl)propanoyl)piperazin-1-yl)benzonitrile] and Cc1cc(F)cc2c(=O)[nH]c(CCC(=O)N3CC=C(c4cc(F)cc(C#N)c4)CC3)cc12 [Example 163, 3-fluoro-5-(1-(3-(7-fluoro-5-methyl-1-oxo-1,2-dihydroisoquinolin-3-yl)propanoyl)-1,2,3,6-tetrahydropyridin-4-yl)benzonitrile] cannot be ordered by inhibition at 0.001 µM: less than 50% for the first, less than 50% for the second.

In the case of N#Cc1ccc(C2=CCN(C(=O)CCc3cc4ccc(F)cc4c(=O)[nH]3)CC2)nc1 [Example 96, 1′-(3-(7-fluoro-1-oxo-1,2-dihydroisoquinolin-3-yl)propanoyl)-1′,2′,3′,6′-tetrahydro-[2,4′-bipyridine]-5-carbonitrile], the inhibition at 0.001 µM is reported as less than 50%.

same assay, conditions: PARP-1 enzyme activity

Compared with N#Cc1ccc(N2CCN(C(=O)CCc3cc4ccc(F)cc4c(=O)[nH]3)CC2)nc1 [Example 99, 6-(4-(3-(7-fluoro-1-oxo-1,2-dihydroisoquinolin-3-yl)propanoyl)piperazin-1-yl)nicotinonitrile], N#Cc1ccc(C2=CCN(CCCc3cc4ccc(F)cc4c(=O)[nH]3)CC2)nc1 [Example 50, 1′-(3-(7-fluoro-1-oxo-1,2-dihydroisoquinolin-3-yl)propyl)-1′,2′,3′,6′-tetrahydro-[2,4′-bipyridine]-5-carbonitrile] is 1.8-fold higher in IC50: 1.05 nM for the first, 1.88 nM for the second. The first is the more potent here.

same assay, conditions: PARP-1 enzyme activity; hydrochloride

N#Cc1ccc(N2CCN(CCCc3cc4cccc(F)c4c(=O)[nH]3)CC2)cc1 [Example 6, 4-(4-(3-(8-fluoro-1-oxo-1,2-dihydroisoquinolin-3-yl)propyl)piperazin-1-yl)benzonitrile hydrochloride] gave an IC50 of 0.41 nM.
